This is an account of results in patent publication US11111249B2, “Heteroaryl-pyrazole derivative, and preparation method therefor and medical application thereof” (Jiangsu Hengrui Medicine Co., Ltd., priority 2017, dated 2021).

In one assay the target is T1, CYP2D6 (Homo sapiens, UniProt P10635).
T1 construct: Human liver microsomes (Corning Gentest); tissue Corning Gentest; host or cells: human liver microsomes
Briefly: Inhibition of human liver microsome CYP2D6 (dextromethorphan substrate). The format is in vitro ADME. The note with it: human liver microsomes, 30 minutes, read-out: IC50 for the metabolic site on CYP2D6. The procedure: The enzymatic activity of the compound of the present application against human liver microsome CYP2D6 was determined by the following experimental method:
CYP probe substrate (20 μM Dextromethorphan, SIGMA Q0750) and positive control inhibitor (Quinidine, SIGMA D9684).
100 mM PBS buffer was configured, and 2.5 mg/mL microsome solution and 5 mM NADPH solution were prepared with this buffer, and the 5× concentration compound working solution was diluted with PBS (150, 50, 15, 5, 1.5, 0.15, 0.015, 0 μM). The 5× concentration of Quinidine working solution (150, 50, 15, 5, 1.5, 0.15, 0.015, 0 μM) was diluted with PBS. Dextromethorphan working solution was diluted to a concentration of 20 μM with PBS.
20 μL each of 2.5 mg/mL microsome solution, 20 μM Dextromethorphan working solution, MgCl2 solution and compound working solution (150, 50, 15, 5, 1.5, 0.15, 0.015, 0 μM, each concentration was setted differently reaction system) were taken and mixed evenly. The compound was replaced with the same concentration of Quinidine at the positive control group. At the same time, 5 mM NADPH solution was pre-incubated for 5 minutes at 37° C. After 5 minutes, 20 μL NADPH were added into the wells, and the reaction was started and incubated for 30 minutes. All samples were incubated for two samples. […]
Background: Liver microsomes are a subcellular fraction often used to study metabolism.

For another assay, the target named is T2, CYP3A4 (Homo sapiens, UniProt P08684).
T2 construct: Human liver microsomes (Corning Gentest); tissue Corning Gentest; host or cells: human liver microsomes
T2 sequence (P08684 whole entry): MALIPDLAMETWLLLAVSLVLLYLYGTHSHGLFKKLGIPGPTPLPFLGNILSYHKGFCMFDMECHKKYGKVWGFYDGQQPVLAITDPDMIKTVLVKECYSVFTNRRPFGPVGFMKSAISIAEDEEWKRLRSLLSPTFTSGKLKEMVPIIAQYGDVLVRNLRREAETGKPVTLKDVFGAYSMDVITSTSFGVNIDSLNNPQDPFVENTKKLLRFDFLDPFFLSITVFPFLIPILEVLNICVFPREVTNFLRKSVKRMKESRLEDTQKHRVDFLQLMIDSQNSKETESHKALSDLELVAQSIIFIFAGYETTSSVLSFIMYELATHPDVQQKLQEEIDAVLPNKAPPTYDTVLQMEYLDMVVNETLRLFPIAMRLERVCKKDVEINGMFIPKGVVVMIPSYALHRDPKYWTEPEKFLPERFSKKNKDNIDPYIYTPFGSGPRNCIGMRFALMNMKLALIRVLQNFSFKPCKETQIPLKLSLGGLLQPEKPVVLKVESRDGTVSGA
Briefly: Inhibition of the midazolam metabolic site on human liver microsome CYP3A4. The class given is in vitro ADME. The note with it: human liver microsomes, midazolam substrate, 30 minutes. As to the method:
The enzymatic activity of the compound of the present application against the Midazolam metabolite site on human liver microsome CYP3A4 was determined by the following experimental method:
CYP probe substrate (15 μM Midazolam, SIGMA UC429) and positive control inhibitor (Ketoconazole, SIGMA K1003).
100 mM PBS buffer was configured, and 2.5 mg/mL microsome solution and 5 mM NADPH solution were prepared with this buffer, and the 5× concentration compound working solution was diluted with PBS (150, 50, 15, 5, 1.5, 0.15, 0.015, 0 μM). The 5× concentration of Ketoconazole working solution (150, 50, 15, 5, 1.5, 0.15, 0.015, 0 μM) was diluted with PBS. Midazolam working solution was diluted to a concentration of 15 μM with PBS.
20 μL each of 2.5 mg/mL microsome solution, 15 μM Midazolam working solution, MgCl2 solution and compound working solution (150, 50, 15, 5, 1.5, 0.15, 0.015, 0 μM, each concentration was setted differently reaction system) were taken and mixed evenly. The compound was replaced with the same concentration of Ketoconazole at the positive control group. At the same time, 5 mM NADPH solution was pre-incubated for 5 minutes at 37° C. After 5 minutes, 20 μL NADPH were added into the wells, and the reaction was started and incubated for 30 minutes. All samples were incubated for two samples. […]

T1 sequence (P10635 whole entry): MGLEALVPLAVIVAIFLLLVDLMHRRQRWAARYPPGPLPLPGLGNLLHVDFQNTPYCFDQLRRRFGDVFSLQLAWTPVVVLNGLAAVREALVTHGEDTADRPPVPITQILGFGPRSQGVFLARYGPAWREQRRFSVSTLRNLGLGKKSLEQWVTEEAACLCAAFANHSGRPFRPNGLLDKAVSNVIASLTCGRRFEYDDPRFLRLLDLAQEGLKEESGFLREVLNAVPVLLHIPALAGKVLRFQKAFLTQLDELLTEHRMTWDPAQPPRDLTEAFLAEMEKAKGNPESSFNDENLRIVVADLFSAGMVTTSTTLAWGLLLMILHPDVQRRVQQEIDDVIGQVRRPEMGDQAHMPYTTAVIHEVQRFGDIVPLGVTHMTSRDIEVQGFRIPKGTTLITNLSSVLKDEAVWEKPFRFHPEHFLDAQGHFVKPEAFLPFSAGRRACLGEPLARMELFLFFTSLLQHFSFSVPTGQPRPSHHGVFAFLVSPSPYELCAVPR

In general, IC50 refers to the concentration that inhibits the measured activity by half. `CCCCOc1nc(N)c2[nH]cc(Cc3ccc(CN4CCCC4)cc3)c2n1` [Embodiment 21 of WO2016023511]: the IC50 was found to be 5.3 µM on CYP2D6 and 1.02 µM at CYP3A4.

For the compound `CCCCOc1nc(N)c2[nH]nc(Cc3ccc(CN4CCCC4)cc3)c2n1` [Embodiment 1, 5-Butoxy-3-(4-(pyrrolidin-1-ylmethyl)benzyl)-1H-pyrazolo[4,3-d]pyrimidin-7-amine], the figures for the IC50 at CYP2D6 and against CYP3A4 were over 30 µM and 16.7 µM, respectively.
